Results published in ChEMBL document CHEMBL5537137, “Design, synthesis and biological evaluation of biaryl amide derivatives against SARS-CoV-2 with dual-target mechanism” (Eur J Med Chem, 2024).

system: not listed separately; test: in vitro; details: human, NCI-H460 cells
Description: Selectivity index, ratio of CC50 for cytotoxicity against human NCI-H460 cells to EC50 for antiviral activity against HCoV-OC43 VR-1558 infected in human NCI-H460 cells

Structure (SMILES)	selectivity ratio
CN1CCN(Cc2ccc(NC(=O)c3ccc(OCCCCl)c(S(=O)(=O)O)c3)cc2C(F)(F)F)CC1	7
CN1CCN(Cc2ccc(NC(=O)c3ccc(OO)c([N+](=O)[O-])c3)cc2C(F)(F)F)CC1	> 8
CN(C)C1CC(Oc2ccc(NC(=O)c3ccc(OCCCl)c([N+](=O)[O-])c3)cc2C(F)(F)F)C1 (stereo unspecified)	9.1
CN(C)C1CN(Cc2ccc(NC(=O)c3ccc(OCCF)c([N+](=O)[O-])c3)cc2C(F)(F)F)C1	25.7
CN(C)C1CN(Cc2ccc(NC(=O)c3ccc(OCC4CC4)c([N+](=O)[O-])c3)cc2C(F)(F)F)C1	14.5
COc1ccc(C(=O)Nc2ccc(CN3CCN(C)CC3)c(C(F)(F)F)c2)cc1S(N)(=O)=O	6.17
CN(C)C1CC(Oc2ccc(NC(=O)c3ccc(OCC(F)F)c([N+](=O)[O-])c3)cc2C(F)(F)F)C1 (stereo unspecified)	13
Cc1ccc(NC(=O)c2ccc(OCCCCl)c([N+](=O)[O-])c2)cc1C(F)(F)F	21
CN(C)C1CC(Oc2ccc(NC(=O)c3ccc(OCCF)c([N+](=O)[O-])c3)cc2C(F)(F)F)C1 (stereo unspecified)	15
COc1ccc(C(=O)Nc2ccc(CN3CC(N(C)C)C3)c(C(F)(F)F)c2)cc1[N+](=O)[O-]	> 17
CCC(=O)Nc1cc(C(=O)Nc2ccc(CN3CC(N(C)C)C3)c(C(F)(F)F)c2)ccc1OCCCCl	4.3
CN(C)C1CC(Oc2ccc(NC(=O)c3ccc(OCc4cc(C(F)(F)F)cc(C(F)(F)F)c4)c([N+](=O)[O-])c3)cc2C(F)(F)F)C1 (stereo unspecified)	1
CC1CC(C)CN(CCCNC(=O)C2CN(Cc3ccc(NC(=O)c4ccc(OCCCCl)c([N+](=O)[O-])c4)cc3C(F)(F)F)C2)C1 (stereo unspecified)	4.7
COc1ccc(C(=O)Nc2ccc(OC3CC(N(C)C)C3)cc2C(F)(F)F)cc1[N+](=O)[O-] (stereo unspecified)	3
C=CCOc1ccc(C(=O)Nc2ccc(CN3CC(N(C)C)C3)c(C(F)(F)F)c2)cc1[N+](=O)[O-]	4
CN1CCN(Cc2ccc(NC(=O)c3ccc(OCCCF)c([N+](=O)[O-])c3)cc2C(F)(F)F)CC1	7
CCOc1ccc(C(=O)Nc2ccc(CN3CC(N(C)C)C3)c(C(F)(F)F)c2)cc1[N+](=O)[O-]	> 108
CN(C)C1CN(Cc2ccc(NC(=O)c3ccc(OCC45CC6CC(CC(C6)C4)C5)c([N+](=O)[O-])c3)cc2C(F)(F)F)C1	< 1.7
COc1ccc(C(=O)Nc2ccc(CN3CCN(C)CC3)c(C(F)(F)F)c2)cc1[N+](=O)[O-]	10.8
CCC(=O)Nc1cc(C(=O)Nc2ccc(CN3CCN(C)CC3)nc2)ccc1OCCCCl	2
CN(C)C1CC(Oc2ccc(NC(=O)c3ccc(OCC4CC4)c([N+](=O)[O-])c3)cc2C(F)(F)F)C1 (stereo unspecified)	7
CCOc1ccc(C(=O)Nc2ccc(OC3CC(N(C)C)C3)c(C(F)(F)F)c2)cc1[N+](=O)[O-] (stereo unspecified)	17.9
CN(C)C1CC(Oc2ccc(NC(=O)c3ccc(OCC45CC6CC(CC(C6)C4)C5)c([N+](=O)[O-])c3)cc2C(F)(F)F)C1 (stereo unspecified)	< 1.7
CC(C)C(=O)OC[C@H]1O[C@@H](n2ccc(NO)nc2=O)[C@H](O)[C@@H]1O [MOLNUPIRAVIR]	102

system: not listed separately; test: Cytotoxicity against human NCI-H460 cells incubated for 72 hrs by CCK-8 assay; details: not given

Structure (SMILES)	CC50 at 72 h [µM]
O=C(Nc1ccc(CN2CC(C(=O)O)C2)c(C(F)(F)F)c1)c1ccc(OCCCCl)c([N+](=O)[O-])c1	> 200
CN1CCN(Cc2ccc(NC(=O)c3ccc(OCCCCl)c(S(=O)(=O)O)c3)cc2C(F)(F)F)CC1	> 200
CN1CCN(Cc2ccc(NC(=O)c3ccc(OO)c([N+](=O)[O-])c3)cc2C(F)(F)F)CC1	> 200
CN(C)C1CC(Oc2ccc(NC(=O)c3ccc(OCCCl)c([N+](=O)[O-])c3)cc2C(F)(F)F)C1 (stereo unspecified)	9.94
CN(C)C1CN(Cc2ccc(NC(=O)c3ccc(OCCF)c([N+](=O)[O-])c3)cc2C(F)(F)F)C1	75.2
CN(C)C1CN(Cc2ccc(NC(=O)c3ccc(OCC4CC4)c([N+](=O)[O-])c3)cc2C(F)(F)F)C1	14.6
COc1ccc(C(=O)Nc2ccc(CN3CCN(C)CC3)c(C(F)(F)F)c2)cc1S(N)(=O)=O	123
CN(C)C1CC(Oc2ccc(NC(=O)c3ccc(OCC(F)F)c([N+](=O)[O-])c3)cc2C(F)(F)F)C1 (stereo unspecified)	34.3
Cc1ccc(NC(=O)c2ccc(OCCCCl)c([N+](=O)[O-])c2)cc1C(F)(F)F	82.4
CN(C)C1CC(Oc2ccc(NC(=O)c3ccc(OCCF)c([N+](=O)[O-])c3)cc2C(F)(F)F)C1 (stereo unspecified)	27.1
COc1ccc(C(=O)Nc2ccc(CN3CC(N(C)C)C3)c(C(F)(F)F)c2)cc1[N+](=O)[O-]	> 200
CCC(=O)Nc1cc(C(=O)Nc2ccc(CN3CC(N(C)C)C3)c(C(F)(F)F)c2)ccc1OCCCCl	96.2
CN(C)C1CC(Oc2ccc(NC(=O)c3ccc(OCc4cc(C(F)(F)F)cc(C(F)(F)F)c4)c([N+](=O)[O-])c3)cc2C(F)(F)F)C1 (stereo unspecified)	17
CC1CC(C)CN(CCCNC(=O)C2CN(Cc3ccc(NC(=O)c4ccc(OCCCCl)c([N+](=O)[O-])c4)cc3C(F)(F)F)C2)C1 (stereo unspecified)	14.9
COc1ccc(C(=O)Nc2ccc(OC3CC(N(C)C)C3)cc2C(F)(F)F)cc1[N+](=O)[O-] (stereo unspecified)	99.5
C=CCOc1ccc(C(=O)Nc2ccc(CN3CC(N(C)C)C3)c(C(F)(F)F)c2)cc1[N+](=O)[O-]	28.1
CN1CCN(Cc2ccc(NC(=O)c3ccc(OCCCF)c([N+](=O)[O-])c3)cc2C(F)(F)F)CC1	17.8
CCOc1ccc(C(=O)Nc2ccc(CN3CC(N(C)C)C3)c(C(F)(F)F)c2)cc1[N+](=O)[O-]	> 200
CN(C)C1CN(Cc2ccc(NC(=O)c3ccc(OCC45CC6CC(CC(C6)C4)C5)c([N+](=O)[O-])c3)cc2C(F)(F)F)C1	4.63
COc1ccc(C(=O)Nc2ccc(CN3CCN(C)CC3)c(C(F)(F)F)c2)cc1[N+](=O)[O-]	30.4
CCC(=O)Nc1cc(C(=O)Nc2ccc(CN3CCN(C)CC3)nc2)ccc1OCCCCl	82.7
CN(C)C1CC(Oc2ccc(NC(=O)c3ccc(OCC4CC4)c([N+](=O)[O-])c3)cc2C(F)(F)F)C1 (stereo unspecified)	8.51
CCOc1ccc(C(=O)Nc2ccc(OC3CC(N(C)C)C3)c(C(F)(F)F)c2)cc1[N+](=O)[O-] (stereo unspecified)	55.4
CN(C)C1CC(Oc2ccc(NC(=O)c3ccc(OCC45CC6CC(CC(C6)C4)C5)c([N+](=O)[O-])c3)cc2C(F)(F)F)C1 (stereo unspecified)	2.51
CC(C)C(=O)OC[C@H]1O[C@@H](n2ccc(NO)nc2=O)[C@H](O)[C@@H]1O [MOLNUPIRAVIR]	18.3

system: Human coronavirus OC43; test: microbe, parasite or virus in culture; details: Betacoronavirus 1, VR-1558, NCI-H460, 72 h
Description: Antiviral activity against HCoV-OC43 VR-1558 infected in human NCI-H460 cells assessed as inhibition of viral growth incubated for 72 hrs by CCK-8 assay

Structure (SMILES)	EC50 [µM]
O=C(Nc1ccc(CN2CC(C(=O)O)C2)c(C(F)(F)F)c1)c1ccc(OCCCCl)c([N+](=O)[O-])c1	> 66.7
CN1CCN(Cc2ccc(NC(=O)c3ccc(OCCCCl)c(S(=O)(=O)O)c3)cc2C(F)(F)F)CC1	36.8
CN1CCN(Cc2ccc(NC(=O)c3ccc(OO)c([N+](=O)[O-])c3)cc2C(F)(F)F)CC1	26.2
CN(C)C1CC(Oc2ccc(NC(=O)c3ccc(OCCCl)c([N+](=O)[O-])c3)cc2C(F)(F)F)C1 (stereo unspecified)	1.09
CN(C)C1CN(Cc2ccc(NC(=O)c3ccc(OCCF)c([N+](=O)[O-])c3)cc2C(F)(F)F)C1	2.93
CN(C)C1CN(Cc2ccc(NC(=O)c3ccc(OCC4CC4)c([N+](=O)[O-])c3)cc2C(F)(F)F)C1	1.01
COc1ccc(C(=O)Nc2ccc(CN3CCN(C)CC3)c(C(F)(F)F)c2)cc1S(N)(=O)=O	19.9
CN(C)C1CC(Oc2ccc(NC(=O)c3ccc(OCC(F)F)c([N+](=O)[O-])c3)cc2C(F)(F)F)C1 (stereo unspecified)	2.58
Cc1ccc(NC(=O)c2ccc(OCCCCl)c([N+](=O)[O-])c2)cc1C(F)(F)F	3.83
CN(C)C1CC(Oc2ccc(NC(=O)c3ccc(OCCF)c([N+](=O)[O-])c3)cc2C(F)(F)F)C1 (stereo unspecified)	1.79
COc1ccc(C(=O)Nc2ccc(CN3CC(N(C)C)C3)c(C(F)(F)F)c2)cc1[N+](=O)[O-]	12.1
CCC(=O)Nc1cc(C(=O)Nc2ccc(CN3CC(N(C)C)C3)c(C(F)(F)F)c2)ccc1OCCCCl	22.2
CN(C)C1CC(Oc2ccc(NC(=O)c3ccc(OCc4cc(C(F)(F)F)cc(C(F)(F)F)c4)c([N+](=O)[O-])c3)cc2C(F)(F)F)C1 (stereo unspecified)	11.7
CC1CC(C)CN(CCCNC(=O)C2CN(Cc3ccc(NC(=O)c4ccc(OCCCCl)c([N+](=O)[O-])c4)cc3C(F)(F)F)C2)C1 (stereo unspecified)	3.18
COc1ccc(C(=O)Nc2ccc(OC3CC(N(C)C)C3)cc2C(F)(F)F)cc1[N+](=O)[O-] (stereo unspecified)	28.6
C=CCOc1ccc(C(=O)Nc2ccc(CN3CC(N(C)C)C3)c(C(F)(F)F)c2)cc1[N+](=O)[O-]	7.61
CN1CCN(Cc2ccc(NC(=O)c3ccc(OCCCF)c([N+](=O)[O-])c3)cc2C(F)(F)F)CC1	2.45
CCOc1ccc(C(=O)Nc2ccc(CN3CC(N(C)C)C3)c(C(F)(F)F)c2)cc1[N+](=O)[O-]	1.85
CN(C)C1CN(Cc2ccc(NC(=O)c3ccc(OCC45CC6CC(CC(C6)C4)C5)c([N+](=O)[O-])c3)cc2C(F)(F)F)C1	> 3.13
COc1ccc(C(=O)Nc2ccc(CN3CCN(C)CC3)c(C(F)(F)F)c2)cc1[N+](=O)[O-]	2.81
CCC(=O)Nc1cc(C(=O)Nc2ccc(CN3CCN(C)CC3)nc2)ccc1OCCCCl	41.5
CN(C)C1CC(Oc2ccc(NC(=O)c3ccc(OCC4CC4)c([N+](=O)[O-])c3)cc2C(F)(F)F)C1 (stereo unspecified)	1.24
CCOc1ccc(C(=O)Nc2ccc(OC3CC(N(C)C)C3)c(C(F)(F)F)c2)cc1[N+](=O)[O-] (stereo unspecified)	3.09
CN(C)C1CC(Oc2ccc(NC(=O)c3ccc(OCC45CC6CC(CC(C6)C4)C5)c([N+](=O)[O-])c3)cc2C(F)(F)F)C1 (stereo unspecified)	> 1.56
CC(C)C(=O)OC[C@H]1O[C@@H](n2ccc(NO)nc2=O)[C@H](O)[C@@H]1O [MOLNUPIRAVIR]	0.18

system: not listed separately; test: Cytotoxicity against human H9 cells; details: not given

Structure (SMILES)	CC50 [µM]
COc1ccc(C(=O)Oc2cc(OC)c(OC)c(OC)c2)cc1NC(=O)C(C)Br (stereo unspecified)	3.64

biological target: Replicase polyprotein 1ab (Severe acute respiratory syndrome coronavirus 2, UniProt P0DTD1); test: not given; details: not given

Structure (SMILES)	Kd [µM]
CCOc1ccc(C(=O)Nc2ccc(CN3CC(N(C)C)C3)c(C(F)(F)F)c2)cc1[N+](=O)[O-]	17.1
